Laboratory results taken from US12662707B2, “MYC amplification drives resistance to pan-RAS inhibitors in pancreatic cancer” (The Trustees of Columbia University in the City of New York, priority 2024, dated 2026).

Columns and labels:
[1] = test system: autochthonous KPC pancreatic tumors; conditions: 50 mg/kg q.o.d.
Description: For survival study, KPC mice with 4-7 mm diameter tumors (as measured by ultrasound) were enrolled and treated every other day with Vehicle (n=9) or RMC-7977 (50 mg/kg; n=13). Animal health status and weight were checked daily and ultrasounds were performed every third day to monitor tumor growth. The survival end point was determined by overall health criteria scoring, where end point is determined by a score of 5 or greater based on the following criteria: • Moribund—immediate euthanasia • Abdominal distention due to hemorrhagic ascites—5 pts • Mild difficulty beathing—5 pts • Hypothermia—5 pts • Abdominal distention due to chylous ascites—3 pts • Loss of over 20% enrollment body weight—3 pts • Failure of grasp test—3 pts Jaundice or pallor—3 pts • Weak grasp test—2 pts • Failure to interact with other mice—1 pt • Hunched—1 pt • Pilorection/failure to groom—1 pt
Additional notes were made to better characterize the cause of death upon necropsy, including the presence of macro liver and/or lung metastases, jaundice, and tumor-mediated GI obstructions. Survival is denoted as Kaplan-Meier survival curves compared with a log-rank, Mantel-Cox test. Mice that reached endpoint criteria were sacrificed either at 4 or 24 hours after last dose in a manner consistent with IACUC standards and our own criteria scoring. Tissue was collected at time of necropsy for further analysis.

[2] = Pharmacokinetics in KPF/FC mice (tumor and blood); format: in vivo, mouse
Description: Tumor formation in KPF/FC (KrasLSL.G12D/+; p53flox/flox; Pdx1-Cre) mice was monitored by bi-weekly palpations until the detection of a mass, which was then confirmed by ultrasound. Tumor-bearing mice were randomized and assigned into groups (n=3/dose/timepoint). Single dose of RMC-7977 was administered orally at 10 mg/kg, 25 mg/kg and 50 mg/kg. The same vehicle formulation was used for the control group. Whole blood and tissue (tumors and colons) were harvested at indicated time points preserved as previously described (See Xenograft studies section).
Whole blood, tumor, colon and skin tissue concentrations of RMC-7977 were determined using liquid chromatography-tandem mass spectrometry (LC-MS/MS) methods. Tissue samples were homogenized with a 5× or 10× volume of homogenization buffer (methanol/15 mM PBS (1:2; v:v) or 15 mM PBS with 10% methanol). […] After thorough mixing and centrifugation, the supernatant was directly analyzed on a Sciex 6500+ triple quadrupole mass spectrometer equipped with an ACQUITY or Shimadzu UPLC system. […] RMC-7977 and IS (verapamil or terfenadine) were detected by positive electrospray ionization using multiple reaction monitoring (RMC-7977: m/z 865.4/706.4 or m/z 865.3/833.5; verapamil: m/z 455.2/164.9; terfenadine: m/z 472.3/436.4). The lower limit of quantification was 0.5 ng/mL or 2.0 ng/mL for blood, tumor, and other tissue. […]

human PDAC cell lines = assay: Human cell line proliferation / viability assay; format: cell-based
Description: 19 PDAC cell lines were tested for sensitivity to RMC-7977 as part of a panel of human cancer cell lines of various histotypes screened at Crown Bioscience. These PDAC cell lines harbored KRASG12D, KRASG12V, KRASG12C, KRASQ61H, and BRAFV487_P492delinsA
mutations. To measure inhibition of cell proliferation, cells were cultured in methylcellulose and treated in triplicates with serial dilutions of RMC-7977 (top concentration of 1 μM) or DMSO dispensed by a Tecan D300e digital dispenser (Tecan Trading AG). Cells were incubated for 120 hours prior to measurement of ATP levels using CellTiter-Glo. Technical triplicates were run for each biological replicate and a total of three biological replicates was done for each cell line. CTG assay readouts were plotted as a function of log molar [inhibitor] and a 4-parameter sigmoidal concentration response model was fitted to the data. Mean±s.d. was plotted for each tested dilution.
PDAC cell lines harboring KRASWT or KRASQ61H were plated at 500-4,000 cells/well in clear, flat-bottomed 96-well plates (Corning) and grown for 24 h prior to adding indicated concentration of RMC-7977 or DMSO using the D300e digital dispenser (Tecan). Following treatment, cells were incubated for additional 3-5 days after which live cells were fluorescently labelled using Calcein AM (20-minute incubation at 500 nM, Thermo Fisher) and counted using the SpectraMax i3X multimode detection platform (Molecular Devices). Experiments were day 0 normalized using an independent culture plate. Growth percentage was calculated by normalizing drug-treated values to DMSO control, which was set to 100%. Four-parameter sigmoidal concentration response models were fitted to the data from 3 or more biological replicates. Mean±s.d. was plotted for each tested dilution.

CCn1c(-c2cc(N3CCN(C4CC4)CC3)cnc2[C@H](C)OC)c2c3cc(ccc31)-c1csc(n1)C[C@H](NC(=O)[C@H]1[C@@H]3COC[C@@H]31)C(=O)N1CCC[C@H](N1)C(=O)OCC(C)(C)C2 [RMC-7977]
body weights compared with control KPC mice [1]: similar | tumor response by 3D-ultrasound [1]: tumor stabilizations or regressions | increase in median survival compared to controls ([1]; KPC mice): 3.5 fold | exposure in blood and PDAC tumors compared with CDX tumor-bearing BALB/c mice ([2]; KPF/FC mice): lower | half-life (t1/2) in KPF/FC tumors compared to CDX tumors ([2]; KPF/FC tumors): shorter half-life | potency in three additional KRASQ61H PDAC lines (human PDAC cell lines; KRASQ61H (Pa02C, T3M-4, UM147), 5 days): low nanomolar potency | sensitivity of KRASWT cell lines and organoids (human PDAC cell lines; KRASWT cell lines and organoids): wider range of sensitivity | potency in concentration-response cell viability assays (human PDAC cell lines; most human PDAC cell lines, 5 days): low nanomolar potency | sensitivity in vitro (human PDAC cell lines; two human cell lines, one KRASQ61H, one KRASWT with BRAF ClassII mutation): lower sensitivity
